Test results as given in patent US12139488B2, “Pyrido[3,2-d]pyrimidine compounds uses thereof for treating a proliferative disease” (Universite de Montreal, priority 2021, dated 2024).

How the values were obtained:
[1] = system: pERK in NCI-H2122 cells (KRAS-G12C); assay: Phospho-ERK inhibition (AlphaLISA), NCI-H2122; assay type: cell-based, human; conditions: for IC50: NCI-H2122; for NCI-H2122 pERK % Ymin: NCI-H2122, value in parentheses
Protocol: All cancer cell lines (A375, A101D, A2058, RKO, HT29 SK-MEL 30, IPC298, HepG2, HCT-116, Lovo, SWV620, SW480, NCI-H358, NCI-H2122, Calu-6, NCIH2087, NCIH1755, NCIH1666 and Mewo) were obtained from ATCC and cultured in RPMI-1640 medium (Gibco) supplemented with 5% heat inactivated fetal bovine serum (FBS, Wisent) at 37° C. under 5% CO2. Cells were maintained in T175 flasks (Greiner). They were passaged by removing the culture medium, washing once in 10 mL of room temperature Phosphate Buffered Saline (PBS; Wisent) and incubating at 37° C. with 2 mL of 0.05% Trypsin (Thermo-Fisher). Trypsin was then inactivated by adding complete growth medium and the cells were then replated in a T175 culture dish at the appropriate dilution. All cell lines were routinely tested for mycoplasma contamination. Tissue type and mutational status of each cell line can be found in Table B.
AlphaLISA® SureFire® Ultra™ p-ERK 1/2 (Thr202/Tyr204) analysis was conducted on cells plated in 100 μL of complete RPMI-1640 growth medium in 96-well flat-bottomed transparent dishes (Costar) at a density indicated in Table C. Cells were maintained overnight at 37° C. under 5% CO2 before treatment with compounds' dilution series for one hour. The cell density in cells/cm^2 corresponds to cell number divided by the area of one well of a 96-well plate ([…]).
In a dilution series 100 μL/well of test substance dilution prepared in complete RPMI-1640 growth media was added to the cells. The dilution series is selected so that ten concentrations cover a range from 10 μM to 0.33 nM. If necessary the initial concentration of 10 μM is increased to 100 μM or lowered to 1 μM (as in the case of A375 and H1666 cells, which are generally more sensitive to the compounds) and further dilution is carried out accordingly. The final concentration of DMSO in the assay is set at 0.5%.
After treatment, media was removed and cells were lysed in 50 μL of 1× AlphaScreen Ultra Lysis Buffer (Perkin Elmer). The AlphaLISA® SureFire® Ultra™ p-ERK 1/2 (Thr202/Tyr2O4) (PerkinElmer) reactions were performed with 5 μL of cell lysate according to the manufacturer's specifications in 384-well proxyplates (Perkin Elmer) followed by overnight incubation of the reactions at room temperature in a humidified chamber. After completion of the reactions, the signals were recorded on an EnVision plate reader (Perkin Elmer) using built in AlphaLISA® settings.
The effect of each compound dilution on the pERK signal was expressed in % inhibition and calculated as follows. An internal 100% inhibition control ([…] trametinib, cat #HY-10999; MedChem Express; CAS #871700-17-3) was included in each plate and used as a measure of pERK background. First, the value obtained for trametinib was subtracted from each data point. The average of DMSO (vehicle) controls (set as 0% inhibition) was established and used to calculate % inhibition: % inhibition=100*(1-((pERK signalcompound)/(pERK signalDMSO)))
The ability of each compound to inhibit pERK signal was expressed as an IC50 value obtained by plotting the inhibition values for each data point of a dilution series and fitting the obtained curves using a log(agonist) versus response-variable slope (four parameters) function using GraphPadPrism (V7.0) or Dotmatics Screening Ultra platform.
When present, paradoxical pERK induction is inferred from the negative % inhibition values observed in the pERK IC50 curves of a compound.

ARAF = ARAF (Homo sapiens (Human), UniProt P10398); assay: ARAF kinase activity assay (AlphaLISA p-MEK 1/2 detection); assay type: biochemical
Protocol: Compound preparation: solid samples of each substances in 1 dram vials were suspended in DMSO (Fisher Scientific) at a stock concentration of 20 mM. Stocks were kept at −20° C. and protected from light. If solubility of the compound at 20 mM appeared to be an issue, the initial concentration of the DMSO stock was changed to 10 mM or 5 mM.
In vitro enzymatic reactions were used for evaluating compounds intrinsic activity against BRAF, CRAF and ARAF. For BRAF and CRAF, 0.375 nM of purified GST-tagged kinases (cat #B4062-10 UG and cat #R1656-10 UG respectively from Millipore Sigma) were incubated with 75 nM of kinase-dead MEK1 substrate (cat #40075; BPS Bioscience) in the presence of 10 μM of Ultrapure ATP (cat #V9102; Promega; part V915A) with and without the test compound in a buffer containing 50 mM HEPES pH 7.5, 10 mM MgCl2, 1 mM EDTA, 0.01% Brij-35 and 2 mM DTT. Separate reactions were performed with the MEK1 substrate and ATP as a blank control. ARAF, kinase reactions were rigorously the same with the exception that kinase concentration was raised to 3.75 nM (cat #1768-0000-1; Reaction Biology).
For compound treatment, 5 μL/well of test substance solution are placed in a 384-well proxyplate (Perkin Elmer) and mixed with 2× concentrated kinase reactions. The dilution series is selected so that nine concentrations cover a range from 100 nM to 0.01 nM. […] The final concentration of DMSO in the assay is set at 0.05%.
ARAF kinase reactions were carried out for a total of 2 hours at 30° C. and then stopped by addition of EDTA at a final concentration of 40 mM. Reactions were then detected using the AlphaLISA® SureFire® Ultra™ p-MEK 1/2 (Ser218/222) (PerkinElmer) kit. Reactions were performed with 5 μL of kinase reaction according to the manufacturer's specifications in 384-well proxyplates (Perkin Elmer) followed by overnight incubation of the AlphaLISA® reactions at room temperature in a humidified chamber. After completion of the detection reactions, the signals were recorded on a Synergy Neo2 plate reader (Biotek) equipped with AlphaLISA® filters. The effect of each compound dilution on the pMEK signal generated by ARAF reactions was expressed in % inhibition and calculated as follows. An internal 100% inhibition control (average of luminescence in kinase reactions comprising kinase dead MEK1 substrate alone) was included in each plate to measure of pMEK background and was subtracted from each data point. The average of DMSO (vehicle) controls (set as 0% inhibition) was also established and used to calculate % inhibition: % inhibition=100*(1−((pMEK signalcompound)/(pMEK signalDMSO)))
IC50 values were obtained by plotting the kinase inhibition values and fitting the dose-activity curves using a log(agonist) versus response-variable slope (four parameters) function using either GraphPadPrism (V7.0) or Dotmatics Screening Ultra platform. Standards included in the ARAF kinase assay were Belvarafenib (MedChem Express cat #HY-109080; CAS #1446113-23-0), LXH254 (MedChem Express cat #HY-112089; CAS #1800398-38-2) and BGB283 (cat #HY-18957; CAS #1446090-79-4).

ARAF, sequence (P10398 whole entry): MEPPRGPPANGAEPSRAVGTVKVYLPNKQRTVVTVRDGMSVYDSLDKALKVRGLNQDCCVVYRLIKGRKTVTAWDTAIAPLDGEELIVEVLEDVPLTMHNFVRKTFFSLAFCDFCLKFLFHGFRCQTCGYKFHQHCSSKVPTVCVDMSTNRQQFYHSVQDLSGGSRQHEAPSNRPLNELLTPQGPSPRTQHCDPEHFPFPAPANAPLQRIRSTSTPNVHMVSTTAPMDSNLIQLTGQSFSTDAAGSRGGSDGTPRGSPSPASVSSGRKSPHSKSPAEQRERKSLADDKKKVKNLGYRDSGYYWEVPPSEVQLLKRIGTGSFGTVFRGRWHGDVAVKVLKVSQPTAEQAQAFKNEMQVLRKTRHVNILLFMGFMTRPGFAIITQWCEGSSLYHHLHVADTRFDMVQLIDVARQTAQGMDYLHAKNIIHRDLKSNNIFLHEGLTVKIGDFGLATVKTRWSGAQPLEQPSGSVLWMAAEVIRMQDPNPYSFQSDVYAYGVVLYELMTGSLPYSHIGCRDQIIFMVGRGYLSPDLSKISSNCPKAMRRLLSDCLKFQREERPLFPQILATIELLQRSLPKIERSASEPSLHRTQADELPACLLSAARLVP

| IC50 ([1]; Homo sapiens) [nM] | IC50 (ARAF) [nM] | IC50 [1] [nM] | Compound | NCI-H2122 pERK % Ymin [1] [%] |
| --- | --- | --- | --- | --- |
| 30 to 300 | > 10 |  | Cc1ccc2c(Nc3cccc(Cl)c3F)nccc2c1NC(=O)c1csc2c(N)ncnc12 [Belvarafenib, reference compound] | −9 |
|  | < 1 | 30 to 300 | Nc1cccc2c1ncn2-c1ccc2ncnc(Nc3c(F)ccc(NS(=O)(=O)c4cccc(Cl)c4Cl)c3F)c2n1 [Example 99] | −3 |
|  | 1 to 10 | 30 to 300 | CC1(O)CCN(c2cccc3c2ncn3-c2ccc3ncnc(Nc4c(F)ccc(NS(=O)(=O)c5cccc(Cl)c5Cl)c4F)c3n2)CC1 [Example 524] | 13 |
